# From PubChem BioAssay AID449750 (Broad Institute, 2010)
# Values joined by “and” are separate entries in the source; they are usually repeats but may differ in a detail not shown here. Equal entries are not always repeated. Active and inactive are the calls of the source. The rule behind the calls is not given here.
# Experiment: non-covalent RecA intein splicing inhibitors, dose response, biochemical, cell-free, fluorescence, secondary screen (AID 449750)
row,Compound,AC50
1,COc1ccc(/C(=N/OC(C)=O)c2nccc3cc(OC)c(OC)cc23)cc1OC,> 38 µM (inactive)
2,Cc1cc(O)ccc1Nc1nc(-c2cccs2)cs1,31.7 µM
3,COc1cccc(C(=O)O/N=C(\N)c2ccc([N+](=O)[O-])cc2)c1OC,> 38 µM (inactive)
4,N#CC1=C(N)Oc2n[nH]c(-c3cccs3)c2C1c1ccoc1 (configuration not stated),> 38 µM (inactive)
5,CCO/C=C1/C(=O)N(C)C(=O)c2cc(OC)ccc21,> 38 µM (inactive)
6,Cc1cnnn1-c1ccc(C(=O)CCl)cc1,> 38 µM (inactive)
7,C#CCOc1ccc(/C=C2/C(=O)N(c3cccc(C(=O)O)c3)N=C2C)cc1OC,2.79 µM
8,COC(=O)[C@@H]1[C@@H](C(=O)OC)C2(c3ccccc3-c3ccccc32)N(c2ccc(Cl)cc2)N1C#N,34.3 µM
9,O=C(O)CN1C(=O)/C(=C\c2cccc(OCc3ccc(Cl)cc3Cl)c2)SC1=S,6.45 µM
10,O=C(CCl)NN=C(c1ccccc1)c1ccccc1,6.37 µM
11,CCOC(=O)C1CCN(C(=O)c2c(C)oc3c2C(=O)c2ccccc2C3=O)CC1,21 µM
12,Brc1ccc(Cn2c(-c3ccc(Br)o3)nc3ccccc32)o1,23.2 µM
13,COc1ccc(/C=C/C(=O)c2ccccc2)cc1COc1ccc(F)cc1,2.18 µM
14,COc1ccc(/C=C/C(=O)c2ccc(O)cc2)cc1COc1ccc(F)cc1,> 38 µM (inactive)
15,CC(C)Oc1cccc(C(=O)C2CCCN(C(=O)c3csnn3)C2)c1 (configuration not stated),> 38 µM (inactive)
16,O=C(O)CSc1cc(NS(=O)(=O)c2ccc(Br)cc2)c2ccccc2c1O,2.2 µM
17,Cc1ccsc1C=Nc1ccc(O)cc1,> 38 µM (inactive)
18,CCn1c(Cl)c(C=O)s/c1=N\S(=O)(=O)c1ccccc1,2.44 µM
19,CCO/C=C1/C(=O)N(Cc2ccccc2)C(=O)c2ccccc21,> 38 µM (inactive)
20,Cc1nn(-c2ccccc2)c2c1C(c1ccc(F)cc1)C(C#N)=C(N)O2 (configuration not stated),28.4 µM
21,COc1cc(/C=C2\C(=O)N(c3ccc(NC(C)=O)cc3)N=C2c2ccccc2)ccc1O,> 38 µM (inactive)
22,COC(CN(C(=O)CCl)C(C(=O)NC1CCCCC1)c1ccc(C)cc1)OC (configuration not stated),17.9 µM
23,Cc1cccc(CS(=O)(=O)c2ncc(Cl)c(C(=O)Nc3ccc(F)cc3)n2)c1,> 38 µM (inactive)
24,CCCCCCCCCCOC(=O)Cn1c(COc2ccc(C)cc2)[n+](C)c2ccccc21,8.88 µM
25,O=C(CCS(=O)NCc1ccccc1)NCc1ccccc1 (configuration not stated),> 38 µM (inactive)
26,CC1=C(CC(=O)c2ccccc2)C(=O)c2ccccc2C1=O,16.6 µM

row,Compound,AC50
1,CCOc1ccc(Cl)cc1C(c1c(C)[nH][nH]c1=O)c1c(C)[nH][nH]c1=O,12 µM
2,C/C(=N/NC(=O)Cc1cc(=O)[nH][nH]1)c1ccc([N+](=O)[O-])cc1,21.5 µM
3,CCc1ccc(S(=O)(=O)Nc2cc(SCC(=O)O)c(O)c3ccccc23)cc1,3.06 µM
4,CC1=NNC(=O)C1C(c1ccccc1)C1C(=O)NN=C1C (configuration not stated),6.67 µM
5,CCS(=O)(=O)c1ncc(Cl)c(C(=O)Nc2ccc(C)cc2)n1,> 38 µM (inactive)
6,N#CCn1c(CCl)nc2ccccc2c1=O,> 38 µM (inactive)
7,Cc1ccc(C(=O)C2C(c3ccc(-c4ccccc4[N+](=O)[O-])o3)NC(=O)NC2(O)C(F)(F)F)cc1 (configuration not stated),19.9 µM
8,CC(C)c1[nH]nc2c1C(Cc1ccccc1)C(C#N)=C(N)O2 (configuration not stated),> 38 µM (inactive)
9,O=C1CS/C(=C\[N+](=O)[O-])N1c1ccc(OC(F)(F)F)cc1,> 38 µM (inactive)
10,CCCCCCCCCCOC(=O)Cn1c(COc2ccc(OC)cc2)[n+](C)c2ccccc21,8.31 µM and 8.42 µM
11,CCCCCCCCCCn1c2c(c(=N)c3c1CCC3)CCC2,> 38 µM (inactive)
12,CN(Cc1ccc(Cl)cc1)C(=O)CCl,10.2 µM
13,CC1(C)CC(=O)C(C2(O)C(=O)NC(=O)NC2=O)=C(O)C1,1.79 µM
14,CCOC(=O)CSCC(=O)N1N=C(c2cccs2)CC1c1ccc(F)cc1 (configuration not stated),16.9 µM
15,CCn1c(COc2cccc3ccccc23)nnc1SCC(N)=O,> 38 µM (inactive)
16,CN(C)C(=S)N=Nc1[nH]c2ccccc2c1O,> 38 µM (inactive)
17,Cc1ccc(N2C(=O)C(Cl)=C(NCCO)C2=O)c(C)c1,> 38 µM (inactive)
18,COc1cc(C2C(C#N)=C(N)Oc3n[nH]c(C)c32)cc2c1OCO2 (configuration not stated),8.43 µM
19,O=c1[nH]cc(N=Cc2cc(Cl)cc(Cl)c2O)c(=O)[nH]1,> 38 µM (inactive)
20,Cc1c([N+](=O)[O-])cnc(Sc2ccccc2)c1[N+](=O)[O-],1.23 µM
21,COC(=O)c1c(NC(=O)/C=C/C(=O)O)sc(Cc2ccccc2)c1C,2.33 µM
22,COc1ccc(NC(=O)/C(Cl)=C(/Cl)S(=O)Cc2ccccc2)cn1 (configuration not stated),> 38 µM (inactive)
23,CCOC(=O)C1Nc2c(F)cc(C)cc2C2c3ccccc3CC12 (configuration not stated),33.7 µM
24,Cc1cc[n+](C2=C([O-])c3ccccc3C(=O)/C2=N\S(=O)(=O)c2cccs2)cc1C,4.29 µM
25,CCOC(=O)c1c(CSC(=N)N)n(-c2ccccc2)c2cc(Br)c(OC(C)=O)cc12,23.6 µM
26,CC(=O)Nc1ccc(NC(=O)CSc2ncc(C(=O)Nc3ccc(F)cc3)c(=O)n2C)cc1,> 38 µM (inactive)
